Assay results published in patent publication US7402605B2, “8-azaprostaglandin derivative compounds and drugs containing the compounds as the active ingredient” (Ono Pharmaceutical Co., Ltd., priority 2002, dated 2008).

Biological target: T1, mouse EP2 receptor (Mus musculus, UniProt Q62053)
T1 construct: expressed in transfected cells; host or cells: CHO cells (membrane fraction)
Assay: Receptor-binding experiment (3H-PGE2 displacement) using membranes of CHO cells expressing prostanoid receptor sub-type EP2
Conditions: inhibition of 3H-PGE2 (2.5 nM) binding, CHO cell membrane fraction, room temperature 1 hour, pH 6.0; Ki=IC50/(1+([C]/Kd))
Method: (i) Experiment for Receptor-Binding Using Cells Which Express Prostanoid Receptor Sub-Types
According to the method of Sugimoto et al. (J. Biol. Chem., 267, 6463-6466 (1992)), CHO cells which expressed prostanoid receptor sub-types (murine EP1, EP2, EP3α, and EP4, respectively) were prepared and used as membrane authentic samples.
A reaction solution (200 μl) containing the prepared membrane fraction (0.5 mg/ml) and ^3H-PGE2 was incubated at room temperature for 1 hour. The reaction was terminated with ice cold buffer (3 ml), and the reaction mixture was filtered under suction through a glass filter (GF/B), on which the binding ^3H-PGE2 was trapped, and the binding radioactivity was measured by means of a liquid scintillator.
The Kd value was obtained from the Scatchard plots [Ann. N.Y. Acad. Sci., 51, 660 (1949)]. Non-specific binding was obtained as the binding in the presence of an excess amount (2.5 μM) of unlabelled PGE2. Measurement of the binding inhibition for ^3H-PGE2 with the compounds of the present invention was performed by adding ^3H-PGE2 (2.5 nM) and a series of concentrations of the compound of the present invention. In this reaction, the following buffer was used in all cases. • Buffer: 10 mM potassium phosphate (pH 6.0), 1 mM EDTA, 10 mM MgCl2, and 0.1M NaCl.
Dissociation constant Ki (μM) of each compound was calculated from the following equation. […]

T1 sequence (Q62053 whole entry): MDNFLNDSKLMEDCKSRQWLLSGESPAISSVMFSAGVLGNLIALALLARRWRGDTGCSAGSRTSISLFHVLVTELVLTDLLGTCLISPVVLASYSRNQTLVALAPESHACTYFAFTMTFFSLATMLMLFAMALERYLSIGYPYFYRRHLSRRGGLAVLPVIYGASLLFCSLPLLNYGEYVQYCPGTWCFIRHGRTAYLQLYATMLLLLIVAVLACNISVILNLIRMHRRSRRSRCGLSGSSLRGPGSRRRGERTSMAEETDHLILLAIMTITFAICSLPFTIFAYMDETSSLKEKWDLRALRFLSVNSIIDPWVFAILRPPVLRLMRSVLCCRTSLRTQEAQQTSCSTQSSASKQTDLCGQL

## CCCCc1ccc(C2CCC(=O)N2CCSc2nc(C(=O)O)cs2)cc1 (stereo not shown) [Example 4(1), 2-(2-(2-(4-n-butylphenyl)-5-oxopyrrolidin-1-yl)ethylthio)thiazole-4-carboxylic acid]
  Ki: 14 nM
